According to US20240254085A1, “CHELATORS FOR RADIOMETALS AND METHODS OF MAKING AND USING SAME” (The University of British Columbia, priority 2021, published 2024):

Columns and labels:
[1] = literature value (ref 11); cited from earlier work
[2] = cited from earlier work
[3] = Human serum stability challenge; type: in vitro ADME; conditions: complexes with [^111In]In^3+, [^155Tb]Tb^3+, [^177Lu]Lu^3+, [^225Ac]Ac^3+; 37° C., 5-7 days
Experimental: All experiments were performed at 37° C. and monitored via radio-iTLC (n=3).
Human serum stability studies were carried out by addition of each radiolabelled complex or bioconjugate (100 μL) to vials containing human serum albumin (100 μL) and incubating the resulting solutions at 37° C. over 5-7 days. The radiochemical purity (RCP) was determined by iTLC using SA-paper plates and EDTA (50 mM, pH 5.5 or 7.0) as eluent, whereby transchelated radioactivity migrates with the solvent front (Rf=1.0) while intact metal complexes remain at the baseline (Rf=0). All studies were performed in triplicate, and the average % RCP used for assessment of each compound.

[4] = Complex formation equilibria (stability constants) with Lu^3+; type: physicochemical
Experimental: (§1) To evaluate the affinity of H4noneunpaX towards metal ions of medicinal importance—e.g. Sc^3+, In^3+, Lu^3+, Dy^3+, Gd^3+, Sm^3+, La^3+— the complex formation equilibria were studied using both combined potentiometric-spectrophotometric titrations, and in all cases, acidic in-batch UV-vis spectrophotometric titrations below pH 2. […]
(§2) All potentiometric titrations were carried out with a Metrohm Titrando 809 and a Metrohm Dosino 800 with a Ross combined electrode. Direct titrations were recorded using a Varian Cary 60 UV-vis spectrophotometer (200-350 nm spectral range) equipped with an optic dip probe (0.2 cm path length), while acidic in-batch experiments were measured with a standardised glass cuvette (1 cm path length). A temperature-controlled (298 K) 20 mL glass cell with an inlet-outlet adapter for nitrogen gas purging (purified via a 10% NaOH solution to exclude CO2 prior to and during each titration) was used as a titration cell. The electrode was calibrated daily in hydrogen ion concentration by direct titration of HCl with freshly prepared NaOH solution, and the results were analysed with the Gran procedure^55 to determine the standard potential (E°) and the ionic product of water (pKw), at 298 K, with 0.16 M NaCl as a supporting electrolyte. […]
(§3) The complex formation equilibria of H4noneunpaX with Sc^3+, In^3+, Lu^3+, Dy^3+, Gd^3+, Sm^3+, and La^3+ were evaluated using both combined potentiometric-spectrophotometric titrations, and acidic in-batch UV-vis spectrophotometric titrations below pH 2. […] Measurements were recorded at T=298 K, I=1.0 cm, the Hammett acidity function (H0) was used determination of the pH in highly acidic solutions rather than electrode potentials. Metal solutions were prepared from atomic absorption spectroscopy (AAS) standards, which were previously evaluated using Gran's method of titrating equimolar solutions of a given metal ion and Na2H2EDTA against NaOH to determine the acid concentration. […]

[5] = Complex formation equilibria (stability constants) with In^3+; type: physicochemical
Experimental: as §1
(§4) All potentiometric titrations were carried out with a Metrohm Titrando 809 and a Metrohm Dosino 800 with a Ross combined electrode. Direct titrations were recorded using a Varian Cary 60 UV-vis spectrophotometer (200-350 nm spectral range) equipped with an optic dip probe (0.2 cm path length), while acidic in-batch experiments were measured with a standardised glass cuvette (1 cm path length). A temperature-controlled (298 K) 20 mL glass cell with an inlet-outlet adapter for nitrogen gas purging (purified via a 10% NaOH solution to exclude CO2 prior to and during each titration) was used as a titration cell. The electrode was calibrated daily in hydrogen ion concentration by direct titration of HCl with freshly prepared NaOH solution, and the results were analysed with the Gran procedure^55 to determine the standard potential (E°) and the ionic product of water (pKw), at 298 K, with 0.16 M NaCl as a supporting electrolyte. Solutions under study were titrated with carbonate-free NaOH solution (˜0.16 M) which was standardized against freshly recrystallized potassium hydrogen phthalate.
The complex formation equilibria of H4noneunpaX with Sc^3+, In^3+, Lu^3+, Dy^3+, Gd^3+, Sm^3+, and La^3+ were evaluated using both combined potentiometric-spectrophotometric titrations, and acidic in-batch UV-vis spectrophotometric titrations below pH 2. For combined potentiometric-spectrophotometric titrations (spectral range: 200-350 nm), solutions containing a 1:1 molar ratio of metal-to-ligand ([M^3+]≈[H4noneunpaX]=8.40×10^−4 M) were titrated against NaOH solution at T=298 K, I=0.2 cm. Acidic in-batch UV-vis spectrophotometric measurements (spectral range: 200-350 nm) were carried out using sets of solutions containing a 1:1 molar ratio of metal-to-ligand ([M^3+]≈[H4noneunpaX]≈1×10^−4 M) with differing amounts of HCl (0.1 M and 3.0 M), to give samples ranging from pH 0-2. Measurements were recorded at T=298 K, I=1.0 cm, the Hammett acidity function (H0) was used determination of the pH in highly acidic solutions rather than electrode potentials. Metal solutions were prepared from atomic absorption spectroscopy (AAS) standards, which were previously evaluated using Gran's method of titrating equimolar solutions of a given metal ion and Na2H2EDTA against NaOH to determine the acid concentration.
(§5) All the potentiometric measurements were processed using the Hyperquad2013^25 software, while spectroscopic measurements were analysed using HypSpec2014.^24 Proton dissociation constants corresponding to hydrolysis of the Sc^3+, In^3+, Lu^3+, Dy^3+ Gd^3+, Sm^3+, and La^3+ aqueous ions used in the calculations were taken from Baes and Mesmer. Speciation diagrams were generated with the calculated protonation constants and stability constants using Hyss software.^56
(§6) Each species generated in the investigated systems can be defined in accordance with the general equilibrium equation pM+qH+rL=MpHqLr (charges omitted). Wherein, a complex containing a metal ion, M, proton, H and ligand, L, has the general formula MpHqLr. […]

[6] = Complex formation equilibria (stability constants) with Dy^3+; type: physicochemical
Experimental: as §1, §2, §3

[7] = Complex formation equilibria (stability constants) with Sc^3+; type: physicochemical
Experimental: as §1, §2, §3

[8] = Complex formation equilibria (stability constants) with Gd^3+; type: physicochemical
Experimental: as §1, §2, §3

[9] = Complex formation equilibria (stability constants) with La^3+; type: physicochemical
Experimental: as §1, §2, §3

[10] = Protonation constants by combined potentiometric-spectrophotometric and acidic in-batch UV-vis titrations; type: physicochemical; conditions: 25° C.
Excerpt: Prior to investigation of the thermodynamic stability of different metal complexes, the protonation constants of the chelating ligand must be determined independently, due to the competition between a given metal ion with a proton for the same coordinating group in the metal complex reaction. Combined potentiometric and UV-vis spectrophotometric titrations were used to evaluate the protonation constants of H4noneunpaX between pH˜2-11.5, while acidic in-batch UV-vis spectrophotometric titrations were used to determine the protonation constants for the most acidic protons, which were below the threshold of the pH electrode (pH<2). All eight protonation constants for H4noneunpaX were determined through refinement of the experimental data using HyperSpec^24 and Hyperquad^25, Table 3.
as §4
The protonation equilibria of H4noneunpaX were evaluated through combined potentiometric-spectrophotometric titrations of solutions containing the ligand ([L]=9.57×10^−4 M) in 0.16 M NaCl (T=298 K, I=0.2 cm). Electromotive force (EMF) values and UV-vis spectra were recorded after each addition of NaOH, and the apparatuses synchronized to have consistent time-intervals (30 s) between each addition/equilibration and data acquisition. Further acidic in-batch UV-vis spectrophotometry studies were performed to obtain the protonation constants for the most acidic ionisable protons of H4noneunpaX, which were below the threshold of the pH electrode (pH<2). Separate solutions of the ligand were prepared at constant molarity ([L]=1×10^−4 M) with differing amounts of HCl (0.1 M and 3.0 M), while maintaining a constant ionic strength (0.16 M NaCl) wherever possible. In each case, the solution stoichiometry was used to calculate the equilibrium concentration of H^+ ions, following the Hammett acidity function (H0) for determination of acidity in high concentration acid solutions. All eight protonation constants for H4noneunpaX were determined through refinement of the experimental data using HypSpec2014^24 and Hyperquad2013^25 software.
as §5, §6

[11] = Complex formation equilibria (stability constants) with Sm^3+; type: physicochemical
Experimental: as §1, §2, §3

[12] = literature value (ref 40); cited from earlier work
[13] = −log[Mfree] when [L] = 10 μM, [M] = 1 μM at pH 7.4

Compound: O=C(O)CN(CCN(CC(=O)O)CC(=O)O)CCN(CC(=O)O)CC(=O)O [DTPA]
- pLu [1]: 19.1

Compound: O=C(O)CN(CCO)CC(=O)O [HEIDA, N-(2-hydroxyethyl)iminodiacetic acid]
- log K1 ([2]; literature value (ref 26), iminodiacetate amine): 8.68

Compound: O=C(O)CN(CCOCCN(Cc1cccc(C(=O)O)n1)Cc1cccc(C(=O)O)n1)CC(=O)O [H4noneunpaX]
- release of bound radiometal in human serum [3]: no release of bound radiometal
- log KMHL ([4]; 25° C., I = […] NaCl): 2.28(3)
- log KML ([4]; 25° C., I = […] NaCl): 21.93(3)
- pM [4, 13]: 21.3
- log KM(OH)2L ([5]; 25° C., I = […] NaCl): 9.06(4)
- log KM(OH)L ([5]; 25° C., I = […] NaCl): 8.58(4)
- log KMHL ([5]; 25° C., I = […] NaCl): 6.17(3)
- log KML ([5]; 25° C., I = […] NaCl): 27.64(2)
- pM [5, 13]: 26.5
- log KMHL ([6]; 25° C., I = […] NaCl): 2.29(2)
- log KML ([6]; 25° C., I = […] NaCl): 21.99(5)
- pM [6, 13]: 21.3
- log KMHL ([7]; 25° C., I = […] NaCl): 3.07(1)
- log KML ([7]; 25° C., I = […] NaCl): 23.57(2)
- pM [7, 13]: 22.9
- log KMHL ([8]; 25° C., I = […] NaCl): 2.80(1)
- log KML ([8]; 25° C., I = […] NaCl): 20.87(4)
- pM [8, 13]: 20.2
- log KMHL ([9]; 25° C., I = […] NaCl): 3.22(2)
- log KML ([9]; 25° C., I = […] NaCl): 18.45(4)
- pM [9, 13]: 17.8
- Σlog KHqL ([10]; I = […] NaCl): 27.35 (6)
- log K (log K3) ([10]; H2L + H^+ ↔ H3L, I = […] NaCl): 3.79
- log β ([10]; H2L + H^+ ↔ H3L, I = […] NaCl): 19.71 (1)
- log K (log K4) ([10]; H3L + H^+ ↔ H4L, I = […] NaCl): 2.83
- log β ([10]; H3L + H^+ ↔ H4L, I = […] NaCl): 22.54 (2)
- log K (log K5) ([10]; H4L + H^+ ↔ H5L, I = […] NaCl): 2.38
- log β ([10]; H4L + H^+ ↔ H5L, I = […] NaCl): 24.92 (3)
- log K (log K6) ([10]; H5L + H^+ ↔ H6L, I = […] NaCl): 2.14
- log β ([10]; H5L + H^+ ↔ H6L, I = […] NaCl): 27.06 (4)
- log K ([10]; H6L + H^+ ↔ H7L, I = […] NaCl): 1.01
- log β ([10]; H6L + H^+ ↔ H7L, I = […] NaCl): 28.07 (4)
- log β ([10]; H7L + H^+ ↔ H8L): 27.35 (6)
- log K (log K2) ([10]; HL + H^+ ↔ H2L, I = […] NaCl): 7.08
- log β ([10]; HL + H^+ ↔ H2L, I = […] NaCl): 15.92 (1)
- log K (log K1) ([10]; L + H^+ ↔ HL, I = […] NaCl): 8.84
- log β ([10]; L + H^+ ↔ HL, I = […] NaCl): 8.84 (1)
- log KMHL ([11]; 25° C., I = […] NaCl): 2.77(1)
- log KML ([11]; 25° C., I = […] NaCl): 21.04(2)
- pM [11, 13]: 20.4

Compound: O=C(O)CN1CCN(CC(=O)O)CCN(CC(=O)O)CCN(CC(=O)O)CC1 [DOTA]
- pLu [1]: 17.1

Compound: [^177Lu][Lu(DOTATATE)]
- accumulation in the adrenal glands [12]: 8.95 % ID/g
- accumulation in the lungs [12]: 17.4 % ID/g
- accumulation in the pancreas [12]: 10.9 % ID/g
- uptake in the kidneys [12]: 6.31 % ID/g

Compound: O=C(O)CN(CCOCCN(CC(=O)O)Cc1cccc(C(=O)O)n1)Cc1cccc(C(=O)O)n1 [H4noneunpa]
- log K2 ([2]; literature value (ref 13), terminal amine): 7.63
